# Measured values: US8536172B2, “Inhibitors of JNK” (Roche Palo Alto LLC, priority 2009, dated 2013)
# What was measured:
# Human JNK1α1 = Human JNK1α1 (Homo sapiens (Human), UniProt P45983); assay: JNK assay in vitro: phosphorylation of GST-ATF2 (19-96) with [γ-33P] ATP, JNK1; assay type: biochemical; conditions: 2 nM enzyme, 1 μM ATF2, 6 μM ATP (Km), 30° C. 30 min
# Description: JNK activity was measured by phosphorylation of GST-ATF2 (19-96) with [γ-^33P] ATP. […] Human JNK2α2 assay contains 1 nM enzyme, 1 μM ATF2, 8 μM ATP with 1 uCi [γ-^33P] ATP. Human JNK1α1 assay contains 2 nM enzyme, 1 μM ATF2, 6 μM ATP with 1 μCi [γ-^33P] ATP. […] ATP. The enzyme assay was carried out in the presence or absence of several compound concentrations. JNK and compound were pre-incubated for 10 min., followed by initiation of the enzymatic reaction by adding ATP and the substrate. The reaction mixture was incubated at 30° C. for 30 min. […] The incorporation of ^33P into ATF2 was quantified on a microplate scintillation counter (Packard Topcount). Compound inhibition potency on JNK was measured by IC50 value generated from ten concentration inhibition curves fitted into the 3-parameter model: % inhibition=Maximum/(1+(IC50/[Inhibitor])^slope). Data were analyzed on Microsoft Excel for parameter estimation.
# Human JNK2α2 = Human JNK2α2 (Homo sapiens (Human), UniProt P45984); assay: JNK assay in vitro: phosphorylation of GST-ATF2 (19-96) with [γ-33P] ATP, JNK2; assay type: biochemical; conditions: 1 nM enzyme, 1 μM ATF2, 8 μM ATP (Km), 30° C. 30 min
# Chain of Human JNK2α2 (P45984 whole entry): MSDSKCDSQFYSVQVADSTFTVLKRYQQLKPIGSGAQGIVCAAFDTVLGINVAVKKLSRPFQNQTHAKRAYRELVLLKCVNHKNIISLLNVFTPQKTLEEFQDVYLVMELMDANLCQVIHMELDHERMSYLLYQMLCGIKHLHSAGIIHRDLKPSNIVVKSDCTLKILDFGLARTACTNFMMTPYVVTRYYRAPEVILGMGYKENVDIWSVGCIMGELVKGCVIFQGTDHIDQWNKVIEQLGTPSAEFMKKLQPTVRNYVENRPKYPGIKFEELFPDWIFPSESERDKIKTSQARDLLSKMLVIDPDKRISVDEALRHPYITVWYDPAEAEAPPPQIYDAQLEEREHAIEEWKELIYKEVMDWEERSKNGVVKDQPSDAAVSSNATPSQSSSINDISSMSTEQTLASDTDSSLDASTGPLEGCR
# Description: JNK activity was measured by phosphorylation of GST-ATF2 (19-96) with [γ-^33P] ATP. […] Human JNK2α2 assay contains 1 nM enzyme, 1 μM ATF2, 8 μM ATP with 1 uCi [γ-^33P] ATP. Human JNK1α1 assay contains 2 nM enzyme, 1 μM ATF2, 6 μM ATP with 1 μCi [γ-^33P] ATP. Human JNK3 (Upstate Biotech #14-501M) assay contains 2 nM enzyme, 1 μM ATF2, 4 μM ATP with 1 μCi [γ-^33P] ATP. The enzyme assay was carried out in the presence or absence of several compound concentrations. JNK and compound were pre-incubated for 10 min., followed by initiation of the enzymatic reaction by adding ATP and the substrate. The reaction mixture was incubated at 30° C. for 30 min. At the end of incubation, the reaction was terminated by transferring 25 μl of the reaction mixture to 150 μl of 10% glutathione Sepharose® slurry (Amersham #27-4574-01) containing 135 mM EDTA. The reaction product was captured on the affinity resin, and washed on a filtration plate (Millipore, MABVNOB50) with phosphate buffered saline for six times to remove free radionucleotide. The incorporation of ^33P into ATF2 was quantified on a microplate scintillation counter (Packard Topcount). Compound inhibition potency on JNK was measured by IC50 value generated from ten concentration inhibition curves fitted into the 3-parameter model: % inhibition=Maximum/(1+(IC50/[Inhibitor])^slope). Data were analyzed on Microsoft Excel for parameter estimation.
# Chain of Human JNK1α1 (P45983 other isoform, or with tags, fused parts or gaps): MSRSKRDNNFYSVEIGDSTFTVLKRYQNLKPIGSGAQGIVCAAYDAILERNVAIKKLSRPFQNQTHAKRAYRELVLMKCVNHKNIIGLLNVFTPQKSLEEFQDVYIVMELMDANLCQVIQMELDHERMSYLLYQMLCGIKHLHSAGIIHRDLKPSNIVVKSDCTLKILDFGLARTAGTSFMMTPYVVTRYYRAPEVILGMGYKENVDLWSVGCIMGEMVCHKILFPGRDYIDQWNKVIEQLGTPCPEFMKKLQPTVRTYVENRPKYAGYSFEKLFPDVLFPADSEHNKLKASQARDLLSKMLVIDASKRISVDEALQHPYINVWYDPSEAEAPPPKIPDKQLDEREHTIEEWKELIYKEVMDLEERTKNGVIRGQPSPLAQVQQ
IC50 (Human JNK1α1) [nM],IC50 (Human JNK2α2) [nM],SMILES
2.4,13.6,"CS(=O)(=O)C[C@H]1CC[C@H](Nc2nccc(-n3ccc4c(N5CCN(C(=O)CC#N)CC5)cccc43)n2)CC1 [Compound I-42, 3-(4-{1-[2-(4-Methanesulfonylmethyl-cyclohexylamino)-pyrimidin-4-yl]-1H-indol-4-yl}-piperazin-1-yl)-3-oxo-propionitrile]"
9.2,18.7,"CCN1CCN(C(=O)[C@H]2CC[C@H](Nc3nccc(-n4ccc5c(N6CCN(C(=O)CC#N)CC6)cccc54)n3)CC2)CC1 [Compound I-56, 3-[4-(1-{2-[4-(4-Ethyl-piperazine-1-carbonyl)-cyclohexylamino]-pyrimidin-4-yl}-1H-indol-4-yl)-piperazin-1-yl]-3-oxo-propionitrile]"
378,1630,"CN(C)CC(=O)N1CCN(c2cccc3c2ccn3-c2ccnc(N[C@H]3CC[C@H](NS(C)(=O)=O)CC3)n2)CC1 [Compound I-23, N-[4-(4-{4-[4-(2-Dimethylamino-acetyl)-piperazin-1-yl]-indol-1-yl}-pyrimidin-2-ylamino)-cyclohexyl]-methanesulfonamide]"
4.2,25.6,"N#CCC(=O)N1CCN(c2cccc3c2ccn3-c2ccnc(N[C@H]3CC[C@H](CN4CC[C@@H](O)C4)CC3)n2)CC1 [Compound I-25, 3-[4-(1-{2-[4-((R)-3-Hydroxy-pyrrolidin-1-ylmethyl)-cyclohexylamino]-pyrimidin-4-yl}-1H-indol-4-yl)-piperazin-1-yl]-3-oxo-propionitrile]"
10.4,74.9,"CC(=O)OCC(=O)N1CCN(c2cccc3c2ccn3-c2ccnc(N[C@H]3CC[C@H](NS(C)(=O)=O)CC3)n2)CC1 [Compound I-10, Acetic acid 2-(4-{1-[2-(4-methanesulfonylamino-cyclohexylamino)-pyrimidin-4-yl]-1H-indol-4-yl}-piperazin-1-yl)-2-oxo-ethyl ester]"

SMILES,IC50 (Human JNK1α1) [nM],IC50 (Human JNK2α2) [nM]
"CC(=O)N1CCN(c2cccc3c2ccn3-c2ccnc(N[C@H]3CC[C@H](C(=O)N4CCC(O)CC4)CC3)n2)[C@H](C)C1 [Compound I-21, 1-[(R)-4-(1-{2-[4-(4-Hydroxy-piperidine-1-carbonyl)-cyclohexylamino]-pyrimidin-4-yl}-1H-indol-4-yl)-3-methyl-piperazin-1-yl]-ethanone]",31.2,138
"N#CCC(=O)N1CCN(c2cccc3c2ccn3-c2ccnc(N[C@H]3CC[C@@H](O)CC3)n2)CC1 [Compound I-57, 3-(4-{1-[2-(4-Hydroxy-cyclohexylamino)-pyrimidin-4-yl]-1H-indol-4-yl}-piperazin-1-yl)-3-oxo-propionitrile]",15.9,88.4
"CC(=O)N1CCN(c2cccc3c2ccn3-c2ccnc(N[C@H]3CC[C@H](CS(C)(=O)=O)CC3)n2)CC1 [Compound I-41, 1-(4-{1-[2-(4-Methanesulfonylmethyl-cyclohexylamino)-pyrimidin-4-yl]-1H-indol-4-yl}-piperazin-1-yl)-ethanone]",25,164
"CS(=O)(=O)N[C@H]1CC[C@H](Nc2nccc(-n3ccc4c(N5CCN(C(=O)CC#N)CC5)cccc43)n2)CC1 [Compound I-9, N-[4-(4-{4-[4-(2-Cyano-acetyl)-piperazin-1-yl]-indol-1-yl}-pyrimidin-2-ylamino)-cyclohexyl]-methanesulfonamide]",5.4,36.2
